From ChEMBL document CHEMBL1201862, “PubChem BioAssay data set” (2004) come the findings set out here.

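These data come from cells grown in 96-well plates and exposed to compound for 48 hours at five concentrations. GI50 is the concentration that inhibits growth by half.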 Active and inactive are the calls of the source. Rule as the data show it: active = GI50 up to about 1.1 µM and inactive = higher.

Test in all cases: NCI tumour cell line growth inhibition, 48 h
In assay [1] the test system is A498.
For assay [2], the system named is ACHN.
Assay [3] concerns COLO 205.
Assay [4] deals with DU-145.
Assay [5] concerns HCT-15.
Assay [6] relates to HL-60.
Assay [7] concerns HOP-92.
The test system of assay [8] is Hs-578T.
The test system of assay [9] is IGROV-1.
For assay [10], the system named is K562.
Assay [11] relates to KM12.
The subject of assay [12] is MDA-MB-231.
The subject of assay [13] is NCI-H226.
The test system of assay [14] is OVCAR-3.
In assay [15] the test system is RPMI-8226.
For assay [16], the system named is SNB-75.
Assay [17] has as its system SR.
Assay [18] relates to TK-10.
For assay [19], the system named is UACC-62.
Assay [20] concerns UO-31.

In the case of `N#C/C(=C(\O)C(=O)O)c1ccc(-c2cccc3ccccc23)cc1`, the GI50 was > 100 µM (inactive) in assay [1]; > 100 µM (inactive) in assay [2]; > 100 µM (inactive) in assay [3]; > 100 µM (inactive) in assay [4]; above 100 µM in [5]; 19.5 µM (inactive) in [6]. For the same molecule, the GI50 in assay [7] is > 100 µM (inactive); in [8] it was > 100 µM (inactive); in assay [9], > 100 µM (inactive); in [10], 2.65 µM (inactive); in [11] it was > 100 µM (inactive); in [12] it was > 100 µM (inactive). Moreover, the GI50 in assay [13] is > 100 µM (inactive); in [14], > 100 µM (inactive); in [15], 29 µM (inactive); in assay [16], > 100 µM (inactive); in assay [17] it was 3.11 µM (inactive); in [18], > 100 µM (inactive). The GI50 in assay [19] and in assay [20] was > 100 µM (inactive) in each case.

As for `NS(=O)(=O)c1ccc(NCc2cnc3ccccc3n2)cc1`, the GI50 in assay [1] was > 100 µM (inactive); in assay [2], > 100 µM (inactive); in assay [3], > 100 µM (inactive); in assay [4] it was > 100 µM (inactive); in assay [5], above 100 µM; in assay [6], > 100 µM (inactive). Besides, the GI50 in assay [7], in assay [8], in [9], in assay [10], in assay [11] and in [12] was > 100 µM (inactive) each time. The GI50 in [13], in [14], in assay [15], in assay [16], in assay [17] and in [18] was > 100 µM (inactive) each time. The GI50 in assay [19] and in assay [20] was > 100 µM (inactive) in each case.

Regarding `CCCc1cn2c(/C=N/NC(=N)N)c(-c3cccc([N+](=O)[O-])c3)nc2s1`, the GI50 in assay [1] is 17.3 µM (inactive); in assay [2] it was 1.79 µM (inactive); in [3] it was 1.88 µM (inactive); in [4], 1.74 µM (inactive); in [5], 1.84 µM; in [6], 2.09 µM (inactive). Further, the GI50 in [7] is 11.1 µM (inactive); in assay [8] it was 2.68 µM (inactive); in assay [9], 1.92 µM (inactive); in assay [10], 1.58 µM (inactive); in assay [11], 1.76 µM (inactive); in [12], 1.47 µM (inactive). In addition, the GI50 in assay [13] is 1.66 µM (inactive); in [14], 1.8 µM (inactive); in [15], 1.8 µM (inactive); in assay [16] it was 1.56 µM (inactive); in assay [17], 2.09 µM (inactive); in [18] it was 0.0405 µM (active). The GI50 in assay [19] was 1.61 µM (inactive); in [20], 1.9 µM (inactive).

For `CC(SCc1ccccc1)C(=O)O` (configuration not stated), the GI50 in [1] is > 100 µM (inactive); in assay [2], > 100 µM (inactive); in [3], > 100 µM (inactive); in assay [4], > 100 µM (inactive); in [5], above 100 µM; in [6] it was > 100 µM (inactive). Also, the GI50 in assay [7], in assay [8], in [9], in assay [10], in [11] and in [12] was > 100 µM (inactive) in each case. For the same molecule, the GI50 in assay [13], in assay [14], in assay [15], in assay [16], in assay [17] and in assay [18] was > 100 µM (inactive) each time. Besides, the GI50 in assay [19] and in [20] was > 100 µM (inactive) in each case.

In the case of `O=C(c1ccc(Cl)c(Cl)c1)N(C(=O)N1CCN(c2ccccc2)CC1)S(=O)(=O)c1ccccc1`, the GI50 in assay [1] is > 100 µM (inactive); in assay [2] it was 97.1 µM (inactive); in [3], > 100 µM (inactive); in assay [4], > 100 µM (inactive); in assay [5], 24.5 µM; in assay [6], > 100 µM (inactive). Also, the GI50 in assay [7] was 20.9 µM (inactive); in assay [8], 57 µM (inactive); in [10] it was 22.9 µM (inactive); in [11], > 100 µM (inactive); in [12], 35.6 µM (inactive); in assay [13] it was 24.2 µM (inactive). Also, the GI50 in [14] was 29.6 µM (inactive); in assay [15] it was 32.6 µM (inactive); in assay [16] it was 91.4 µM (inactive); in assay [17], 20.7 µM (inactive); in assay [18], > 100 µM (inactive); in assay [19], 32.8 µM (inactive). The GI50 in [20] was 25.1 µM (inactive).

As to `O=[N+]([O-])c1ccc2c(c1)Sc1ccccc1N2`, the GI50 is 14.1 µM (inactive) in [1]; 64.1 µM (inactive) in assay [2]; 32.9 µM (inactive) in assay [3]; 74.6 µM (inactive) in [4]; 27.6 µM in assay [5]; 5.11 µM (inactive) in assay [6]. For the same molecule, the GI50 in [7] is 6.12 µM (inactive); in [8], 17.2 µM (inactive); in assay [9], 17.7 µM (inactive); in [10], 5.41 µM (inactive); in assay [11], > 100 µM (inactive); in assay [12], 46.1 µM (inactive). Besides, the GI50 in [13] is > 100 µM (inactive); in assay [14], > 100 µM (inactive); in assay [15], 5.79 µM (inactive); in assay [16], 26.6 µM (inactive); in [17], 12 µM (inactive); in assay [18], > 100 µM (inactive). Further, in assay [20], the GI50 is > 100 µM (inactive).

In the case of `COC(=O)c1ccc(CCC2=CC(=O)C(Br)=CC2=O)cc1`, the GI50 in [1] is 20.2 µM (inactive); in assay [2] it was 12.6 µM (inactive); in [3], 6.78 µM (inactive); in assay [4], 18.1 µM (inactive); in [5] it was 14.5 µM; in assay [6], 2 µM (inactive). In addition, the GI50 in assay [7] is 5.14 µM (inactive); in [8], 20.4 µM (inactive); in assay [9], 15 µM (inactive); in [10], 2.21 µM (inactive); in [11] it was 15.2 µM (inactive); in [12] it was 18.6 µM (inactive). The GI50 in assay [13] is 14.7 µM (inactive); in [14], 15.3 µM (inactive); in assay [15] it was 10.2 µM (inactive); in assay [16] it was 14 µM (inactive); in assay [17] it was 2.97 µM (inactive); in [18], 17.3 µM (inactive). In addition, the GI50 was 17.8 µM (inactive) in assay [19] and 15.8 µM (inactive) in assay [20].

With `O=c1c2cc(I)ccc2nc(Sc2ncccc2[N+](=O)[O-])n1Cc1ccccc1`, the GI50 was 24.6 µM (inactive) in [1]; 39.1 µM (inactive) in assay [2]; 27.5 µM (inactive) in assay [3]; 22.5 µM (inactive) in [4]; 19.3 µM in assay [5]; 0.122 µM (active) in assay [6]. Further, the GI50 in assay [7] was 5.33 µM (inactive); in assay [8], 16.7 µM (inactive); in [9], 13.7 µM (inactive); in [10], 38.5 µM (inactive); in [11], 27.4 µM (inactive); in assay [12], 21.1 µM (inactive). Also, the GI50 was 22.3 µM (inactive) in assay [13]; 22 µM (inactive) in assay [14]; 19.1 µM (inactive) in [15]; 7.08 µM (inactive) in assay [16]; 7.08 µM (inactive) in [17]; 37.2 µM (inactive) in assay [18]. The results for the GI50 in assay [19] and in assay [20] were 21.2 µM (inactive) and 14.3 µM (inactive), respectively.

Consider `COc1cc(/C=C2/Oc3c(OC)cccc3C2=O)ccc1O`, for which the GI50 in [1] is 94 µM (inactive); in assay [2] it was 63.7 µM (inactive); in assay [3], 45.8 µM (inactive); in assay [4], 49.1 µM (inactive); in [5] it was 24.3 µM; in assay [6], 36.6 µM (inactive). Besides, the GI50 in [7] is > 100 µM (inactive); in [8], > 100 µM (inactive); in [9] it was 64.6 µM (inactive); in [10] it was > 100 µM (inactive); in assay [11] it was 88.5 µM (inactive); in assay [12], > 100 µM (inactive). For the same molecule, the GI50 is 76 µM (inactive) in assay [13]; 61.2 µM (inactive) in assay [14]; 53.2 µM (inactive) in assay [15]; 41.8 µM (inactive) in [16]; 29.9 µM (inactive) in assay [17]; > 100 µM (inactive) in [18]. Besides, the GI50 is > 100 µM (inactive) in assay [19] and 63 µM (inactive) in assay [20].

In the case of `CC(C(=O)c1ccccc1)C(c1ccccc1)N1CCOCC1` (configuration not stated), the GI50 in assay [1] is > 100 µM (inactive); in assay [2], > 100 µM (inactive); in assay [3], > 100 µM (inactive); in [4], > 100 µM (inactive); in assay [5] it was above 100 µM; in assay [6], 49.1 µM (inactive). Moreover, the GI50 in assay [7], in assay [8], in assay [9], in assay [10], in assay [11] and in [12] was > 100 µM (inactive) each time. Moreover, the GI50 in assay [13] was > 100 µM (inactive); in [14], > 100 µM (inactive); in [15], 54.3 µM (inactive); in [16], > 100 µM (inactive); in assay [17] it was > 100 µM (inactive); in [18] it was > 100 µM (inactive). The GI50 in assay [19] was > 100 µM (inactive).
